The results in this text go back to patent publication US20090291942A1, “IMIDAZO PYRIDINE DERIVATIVES” (priority 2008, published 2009).

The test has as its target T1, human GPR4 (Homo sapiens, UniProt P46093).
T1 construct: expressed in transfected cells
The experiment in a line: Cell-based assay for human GPR4 activity (pH-induced cAMP formation, HTRF). The settings on record: HeLa cells stably expressing human GPR4, pH-induced cAMP formation. In a few lines: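 HeLa cells stably expressing human GPR4, pre-incubated 15 min at room temperature with compound in pH 8 buffer containing 2 mM IBMX. Buffer B added to set the final stimulation pH, then a further 15 min at room temperature; cAMP read by HTRF.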
On the technique in general: cAMP levels reflect the balance of adenylyl cyclase and phosphodiesterase activity.

Where a name gives a salt, the structure may show the parent alone.

T1 sequence (P46093 whole entry): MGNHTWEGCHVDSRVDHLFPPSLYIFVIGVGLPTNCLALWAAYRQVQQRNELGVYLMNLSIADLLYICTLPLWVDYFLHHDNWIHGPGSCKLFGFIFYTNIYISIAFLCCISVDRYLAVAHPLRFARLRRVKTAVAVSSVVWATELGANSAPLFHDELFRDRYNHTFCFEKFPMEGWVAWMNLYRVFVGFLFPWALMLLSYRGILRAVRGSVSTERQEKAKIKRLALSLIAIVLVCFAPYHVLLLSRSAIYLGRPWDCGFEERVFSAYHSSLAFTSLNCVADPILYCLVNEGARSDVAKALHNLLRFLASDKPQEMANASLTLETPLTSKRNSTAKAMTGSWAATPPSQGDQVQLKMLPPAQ

The term IC50 denotes the midpoint of a concentration-inhibition curve. The low end stands for inhibition by little substance, the high end for a need for much substance. Compound `Cc1cc(C)c2nc(C3CC3)n(Cc3ccc(/C=C/CN4CCN(C(C)C)CC4)cc3)c2n1` [Example 84, 2-Cyclopropyl-3-{4-[(E)-3-(4-isopropyl-piperazin-1-yl)-propenyl]-benzyl}-5,7-dimethyl-3H-imidazo[4,5-b]pyridine dihydrochloride] came in with an IC50 of 181 nM.
`CCCCc1nc2c(C)cc(C)nc2n1Cc1ccc(/C=C/CN2CCN(C(C)C)CC2)cc1` [Example 85, 2-Butyl-3-{4-[(E)-3-(4-isopropyl-piperazin-1-yl)-propenyl]-benzyl}-5,7-dimethyl-3H-imidazo[4,5-b]pyridine dihydrochloride] came in with an IC50 of 834 nM.
With `CCCCc1nc2c(C)cc(C)nc2n1Cc1ccc(/C=C/CN2CCC(N3CCCCC3)CC2)cc1` [Example 86, 1′-{(E)-3-[4-(2-Butyl-5,7-dimethyl-imidazo[4,5-b]pyridin-3-ylmethyl)-phenyl]-allyl}-[1,4′]bipiperidine dihydrochloride], the IC50 amounted to 481 nM.
The result for `Cc1cc(C)c2nc(C(F)(F)F)n(Cc3ccc(/C=C/CN4CCC(N5CCCCC5)CC4)cc3)c2n1` [Example 87, 1′-{(E)-3-[4-(5,7-Dimethyl-2-trifluoromethyl-imidazo[4,5-b]pyridin-3-ylmethyl)-phenyl]-allyl}-[1,4′]bipiperidinyl dihydrochloride] reads 296 nM; that for `Cc1cc(C)c2nc(C(F)(F)F)n(Cc3ccc(/C=C/CN4CCC(N5CCN(C)CC5)CC4)cc3)c2n1` [Example 88, 5,7-Dimethyl-3-(4-{(E)-3-[4-(4-methyl-piperazin-1-yl)-piperidin-1-yl]-propenyl}-benzyl)-2-trifluoromethyl-3H-imidazo[4,5-b]pyridine trihydrochloride], 199 nM.
Compound `Cc1cc(C)c2nc(C(F)(F)F)n(Cc3ccc(/C=C/CN4CCC(N5CCOCC5)CC4)cc3)c2n1` [Example 89, 5,7-Dimethyl-3-{4-[(E)-3-(4-morpholin-4-yl-piperidin-1-yl)-propenyl]-benzyl}-2-trifluoromethyl-3H-imidazo[4,5-b]pyridine dihydrochloride] yielded an IC50 of 182 nM.
Take `COC(=O)C1CCN(C/C=C/c2ccc(Cn3c(C(F)(F)F)nc4c(C)cc(C)nc43)cc2)CC1` [Example 90, 1-{(E)-3-[4-(5,7-Dimethyl-2-trifluoromethyl-imidazo[4,5-b]pyridin-3-ylmethyl)-phenyl]-allyl}-piperidine-4-carboxylic acid methyl ester hydrochloride]: half-maximal inhibition (IC50) required 568 nM.
The value for `Cc1cc(C)c2nc(C(F)(F)F)n(Cc3ccc(/C=C/CN4CCN(C(C)C)CC4)cc3)c2n1` [Example 91, 3-{4-[(E)-3-(4-Isopropyl-piperazin-1-yl)-propenyl]-benzyl}-5,7-dimethyl-2-trifluoromethyl-3H-imidazo[4,5-b]pyridine dihydrochloride] was 140 nM; that for `Cc1cc(C)c2nc(C(F)(F)F)n(Cc3ccc(/C=C/CN4CCN(C(C)(C)C)CC4)cc3)c2n1` [Example 92, 3-{4-[(E)-3-(4-tert-Butyl-piperazin-1-yl)-propenyl]-benzyl}-5,7-dimethyl-2-trifluoromethyl-3H-imidazo[4,5-b]pyridine] was 30 nM.
The result for `CCc1nc2c(C)cc(C)nc2n1Cc1ccc(/C=C(\F)CN2CCC(N3CCCCC3)CC2)cc1` [Example 93, 1′-{(Z)-3-[4-(2-Ethyl-5,7-dimethyl-imidazo[4,5-b]pyridin-3-ylmethyl)-phenyl]-2-fluoro-allyl}-[1,4′]bipiperidinyl dihydrochloride] reads 29 nM; that for `CCc1nc2c(C)cc(C)nc2n1Cc1ccc(/C=C(\F)CN2CCN(C(C)C)CC2)cc1` [Example 94, 2-Ethyl-3-{4-[(Z)-2-fluoro-3-(4-isopropyl-piperazin-1-yl)-propenyl]-benzyl}-5,7-dimethyl-3H-imidazo[4,5-b]pyridine dihydrochloride], 24 nM.
On to `CCc1nc2c(C)cc(C)nc2n1Cc1ccc(/C=C(\F)CN2CCN(C(C)(C)C)CC2)cc1` [Example 95, 3-{4-[(Z)-3-(4-tert-Butyl-piperazin-1-yl)-2-fluoro-propenyl]-benzyl}-2-ethyl-5,7-dimethyl-3H-imidazo[4,5-b]pyridine dihydrochloride], for which the midpoint of inhibition, the IC50, lay at 31 nM.
The value for `CCc1nc2c(C)cc(C)nc2n1Cc1ccc(/C=C/C(=O)N2CCC(N(CC)CC)CC2)cc1` [Example 96, (E)-1-(4-Diethylamino-piperidin-1-yl)-3-[4-(2-ethyl-5,7-dimethyl-imidazo[4,5-b]pyridin-3-ylmethyl)-phenyl]-propenone] was 994 nM.
The result for `CCc1nc2c(C)cc(C)nc2n1Cc1ccc(/C=C/C(=O)N2CCC(N3CCCCC3)CC2)cc1` [Example 97, (E)-1-[1,4′]Bipiperidinyl-1′-yl-3-[4-(2-ethyl-5,7-dimethyl-imidazo[4,5-b]pyridin-3-ylmethyl)-phenyl]-propenone hydrochloride] reads 445 nM.
The result for `CCc1nc2c(C)cc(C)nc2n1Cc1ccc(/C=C/C(=O)N2CCC(N3CCOCC3)CC2)cc1` [Example 98, (E)-3-[4-(2-Ethyl-5,7-dimethyl-imidazo[4,5-b]pyridin-3-ylmethyl)-phenyl]-1-(4-morpholin-4-yl-piperidin-1-yl)-propenone] reads 328 nM.
In turn, `CCc1nc2c(C)cc(C)nc2n1Cc1ccc(C(=O)NCCCCN2CCCC2)cc1` [Example 99, 4-(2-Ethyl-5,7-dimethyl-imidazo[4,5-b]pyridin-3-ylmethyl)-N-(4-pyrrolidin-1-yl-butyl)-benzamide] returned an IC50 of 997 nM.
Regarding `CCc1nc2c(C)cc(C)nc2n1Cc1ccc(C(=O)NCCCCN2CCCCCC2)cc1` [Example 100, N-(4-Azepan-1-yl-butyl)-4-(2-ethyl-5,7-dimethyl-imidazo[4,5-b]pyridin-3-ylmethyl)-benzamide], the IC50 amounted to 495 nM.
The result for `CCc1nc2c(C)cc(C)nc2n1Cc1ccc(NC(=O)CCCCN2CCCC2)cc1` [Example 101, 5-Pyrrolidin-1-yl-pentanoic acid [4-(2-ethyl-5,7-dimethyl-imidazo[4,5-b]pyridin-3-ylmethyl)-phenyl]-amide] reads 364 nM.
`CCc1nc2c(C)cc(C)nc2n1Cc1ccc(NC(=O)CCCCN2CCCCC2)cc1` [Example 102, 5-Piperidin-1-yl-pentanoic acid [4-(2-ethyl-5,7-dimethyl-imidazo[4,5-b]pyridin-3-ylmethyl)-phenyl]-amide]: the IC50 is 241 nM.
The result for `CCc1nc2c(C)cc(C)nc2n1Cc1ccc(/C=C/CCN2CCN(C(C)(C)C)CC2)cc1` [Example 104, 3-{4-[(E)-4-(4-tert-Butyl-piperazin-1-yl)-but-1-enyl]-benzyl}-2-ethyl-5,7-dimethyl-3H-imidazo[4,5-b]pyridine dihydrochloride] reads 60 nM.
`CCc1nc2c(C)cc(C)nc2n1Cc1ccc(/C=C/CCN2CCC(N3CCCCC3)CC2)cc1` [Example 105, 1′-{(E)-4-[4-(2-Ethyl-5,7-dimethyl-imidazo[4,5-b]pyridin-3-ylmethyl)-phenyl]-but-3-enyl}-[1,4′]bipiperidine] yielded an IC50 of 115 nM.
`CCc1nc2c(C)cc(C)nc2n1Cc1ccc(/C=C/CCN2CCN(C(C)C)CC2)cc1` [Example 106, 2-Ethyl-3-{4-[(E)-4-(4-isopropyl-piperazin-1-yl)-but-1-enyl]-benzyl}-5,7-dimethyl-3H-imidazo[4,5-b]pyridine dihydrochloride] gave an IC50 of 98 nM.
